The subject of this assay is 282377-053-R-J1-PDC complex spheroid viability. Description: Anticancer human tumor 282377-053-R-J1-PDC patient-derived colon adenocarcinoma cell line growth inhibition [POLQ]. The conditions noted are these: for viability, T/C: stronger effect = lower value. As for the experimental part: Multicellular complex tumor spheroid response to Polymerase (POL) inhibitors (novobiocin, ART-558, RP6685) in combination with a variety of drugs and investigational agents in selected tumor cell lines
The POL inhibitors (novobiocin, ART-558, and RP6685) were evaluated both individually and in combination with standard of care and investigational anticancer small molecules within a complex spheroid model of solid tumors. . Complex spheroids include a stromal component modeled by human endothelial cells (HUVEC) and fibroblasts modeled by human mesenchymal stem cells (MSCs). The concentration ranges selected for each drug and investigational agent were based upon clinically achievable concentrations if the clinical Cmax of the agent was known.
Compounds. The drugs and investigational agents: novobiocin (NSC847541), ART-558 (NSC835418), RP-6685 (NSC848927), peposertib (NSC802822), ceralasertib (NSC780249), elimusertib (NSC800525), camonsertib (NSC841442), AZD-1390 (NSC803789), olaparib (NSC753686), talazoparib (NSC767125), rucaparib (NSC756644), sotorasib (NSC818433), MRTX-1133 (NSC836407), SN-38 (NSC673596), topotecan (NSC609699), epotoside (NSC141540), doxorubicin (NSC123127), gemcitabine (NSC613327), 5-fluorouracil (NSC19893), paclitaxel (NSC125973), vemurafenib (NSC761431), MSA-2 (NSC828583), SN-011 (NSC837082), adavosertib (NSC754352), prexasertib (NSC758257), carboplatin (NSC241240) and oxaliplatin (NSC266046), were obtained from the National Cancer Institute (NCI) Developmental Therapeutics Program Chemical Repository (21). The FDA-approved anticancer drug set is available from the Developmental Therapeutics Program at https://dtp.cancer.gov/organization/dscb/obtaining/. […] The stock solutions were prepared in dimethyl sulfoxide (DMSO, Sigma-Aldrich, St. Louis, MO, cat. D2650), except for the platinum compounds which were prepared in saline (Quality Biological, Gaithersburg, MD, cat. 114-055-101), at 800-fold the tested concentration and stored at -70 degrees C prior to their use. All drugs and investigational agents were tested over a range starting from a high concentration at or near the clinical Cmax and decreasing in half-log increments. If the clinical Cmax for an agent had not been determined, the highest concentration tested was 10 microM, except for SN-38, which was tested at a high concentration of 1 microM.
Cell Culture. All cells were maintained in an incubator at 37 degrees C and 5% CO2 with 95% humidity. The PDC lines were cultured according to standard operating procedures established by the NCI PDMR (https://pdmr.cancer.gov). Table 3 of the manuscript, lists the cell lines along with the number of the three cell types plated to form the mct-spheroids and media for tumor cell growth. After thawing, all PDC lines, except 997537-175-T-J1-PDC and 415267-285-R-J2-PDC, were cultured in Matrigel-coated flasks prepared with a working solution of 1X Ham's F-12 nutrient mix, without supplementation (Thermo Fisher Scientific, cat. 11765054), 100 U/mL penicillin-streptomycin (Thermo Fisher Scientific, cat. 15140122), and 2.5% Matrigel (Corning Inc., Corning, NY, cat. 354248) for the first three passages. The two PDC lines 997537-175-T-J1-PDC and 415267-285-R-J2-PDC were cultured on uncoated flasks. The 857933-349-R-J2-PDC line was cultured in 6C/Colon 1B media containing advanced DMEM/F-12 (Thermo Fisher Scientific, cat. 12634028), 10 mM HEPES (Thermo Fisher Scientific, cat. 15630080), 1X GlutaMAX supplement (Thermo Fisher Scientific, cat. 35050061), 0.1 mg/mL primocin (InvivoGen, San Diego, CA, cat. ant-pm-2), 10% defined fetal bovine serum, heat inactivated (HyClone Laboratories Inc., Logan, UT, cat. SH30070.03HI), 50% L-WRN conditioned media (ATCC, cat. CRL-3276), 1.25 mM N-Acetyl-L-cysteine (Sigma-Aldrich, cat. A9165), 10 mM nicotinamide (Sigma-Aldrich, cat. N0636), 1X B-27 supplement (Thermo Fisher Scientific, cat. 17504044), 1X N-2 supplement (Thermo Fisher Scientific, cat. […]

Data on ten compounds can be found in PubChem BioAssay AID1963852 (Molecular Pharmacology Branch, DTP, NCI, 2024).

SMILES strings stand for the structures. Values joined by “and” are separate entries in the source; they are usually repeats but may differ in a detail not shown here. Equal values may be shown once.

Broadly, the viability, T/C is the result in the treated group divided by that in the control group, in per cent. In general, IC50 refers to the concentration that gives 50% inhibition.
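Note: spheroids exposed to compounds for seven days.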

Regarding `COC1C(OC(N)=O)C(O)C(Oc2ccc3c(O)c(NC(=O)c4ccc(O)c(CC=C(C)C)c4)c(=O)oc3c2C)OC1(C)C` (stereo unspecified), the viability, T/C is, setting by setting: (compound 0.0316 µM) 94.6% [middle of 13 runs]; (compound 0.316 µM) 105% [middle of 13 runs]; (compound 1 µM) 101% [middle of 13 runs]; (compound 3.16 µM) 101% [middle of 13 runs]; (compound 10 µM) 101% [middle of 13 runs]. The IC50 (compound alone, run of 10/31/2023) was more than 10000 nM.

Consider `COc1cc(C2c3cc4c(cc3C(OC3OC5COC(C)OC5C(O)C3O)C3COC(=O)C23)OCO4)cc(OC)c1O` (stereo unspecified), for which the viability, T/C was 86.7% and 90% and 76.8% (compound 0.0316 µM); 108% and 96.2% and 104% (compound 0.1 µM); 94.2% and 108% and 83% (compound 0.316 µM); 124% and 104% and 96.8% (compound 1 µM); 82.7% and 105% and 70.8% (compound 3.16 µM); 58% and 81.8% and 50.9% (compound 10 µM). The 50% inhibitory concentration (IC50) (curve of compound) was more than 10000 nM.

Take `COc1ccc([C@@H](O)c2cc(-c3ncnc4cc(N5CCOCC5)ccc34)c(F)cc2Cl)nn1`: the viability, T/C is, setting by setting: (compound 0.0316 µM) 95.7% and 94.3% and 98.1%; (compound 0.1 µM) 92.2% and 99.3% and 91.8%; (compound 0.316 µM) 112% and 94.1% and 106%; (compound 1 µM) 88.9% and 98.7% and 102%; (compound 3.16 µM) 82.5% and 101% and 87.2%; (compound 10 µM) 71.8% and 84.8% and 82.2%. Also, under “curve of compound”, the IC50 is more than 10000 nM.

Turning to `COc1cccc(OCCCN)c1-c1cc(Nc2cnc(C#N)cn2)n[nH]1`, the viability, T/C runs as follows: (compound 0.00316 µM) 107% and 99.4% and 101%; (compound 0.01 µM) 94.1% and 89.1% and 85.9%; (compound 0.0316 µM) 76.9% and 82.1% and 72.1%; (compound 0.1 µM) 49.5% and 74.7% and 75.6%; (compound 0.316 µM) 37.2% and 63.1% and 52.5%; (compound 1 µM) 26.8% and 44% and 43.3%. For the setting “curve of compound”, the IC50 is 112 nM and 731 nM and 534 nM.

With `COc1cccc2c1C(=O)c1c(O)c3c(c(O)c1C2=O)CC(O)(C(=O)CO)CC3OC1CC(N)C(O)C(C)O1` (stereo unspecified), the viability, T/C was 98.8% and 96% and 104% (compound 0.0316 µM); 83.9% and 92.9% and 87.7% (compound 0.1 µM); 62.9% and 125% and 50.8% (compound 0.316 µM); 17.3% and 111% and 20.5% (compound 1 µM); 0.93% and 18.7% and 1.37% (compound 3.16 µM); 2.95% and 3.23% and 2.45% (compound 10 µM). The IC50 (curve of compound) is 421 nM and 2090 nM and 336 nM.

For `Cn1ncnc1[C@H]1c2n[nH]c(=O)c3cc(F)cc(c23)N[C@@H]1c1ccc(F)cc1`, the viability, T/C (compound 0.000316 µM) was 97.4% and 91% and 104%; the viability, T/C (compound 0.001 µM) is 95.4% and 95.3% and 93.1%; the viability, T/C (compound 0.00316 µM) was 76.2% and 90.7% and 93.6%; the viability, T/C (compound 0.01 µM) is 108% (2×) and 102%; the viability, T/C (compound 0.0316 µM) is 110% and 98.3% and 105%; the viability, T/C (compound 0.1 µM) was 90.5% and 95.2% and 106%. Also, the 50% inhibitory concentration (IC50) (curve of compound) was more than 100 nM.

Take `Nc1ccc(C#CCN(C(=O)Cc2ncc(C(F)(F)F)cc2C(F)(F)F)c2ccc(F)cc2)nn1`: the viability, T/C was 92.4% [middle of 13 runs] (compound 0.0316 µM), 99.5% [middle of 12 runs] (compound 1 µM), 102% [middle of 13 runs] (compound 3.16 µM) and 114% [middle of 13 runs] (compound 10 µM). The IC50 (compound alone, run of 11/06/2023) is more than 10000 nM.

Regarding `Nc1ccn(C2OC(CO)C(O)C2(F)F)c(=O)n1` (stereo unspecified), the viability, T/C was 74% and 105% and 75.7% (compound 0.0316 µM); 45.1% and 88.6% and 54.5% (compound 0.1 µM); 30.1% and 97.8% and 29.1% (compound 0.316 µM); 23.5% and 84.4% and 33.9% (compound 1 µM); 23.9% and 84% and 18.8% (compound 3.16 µM); 13.4% and 71.6% and 11.1% (compound 10 µM).

For the compound `O=C(c1cc(Cc2n[nH]c(=O)c3ccccc23)ccc1F)N1CCN(C(=O)C2CC2)CC1`, the viability, T/C was 96.2% and 95.6% and 96.1% (compound 0.0316 µM); 94.5% and 97.4% and 107% (compound 0.1 µM); 118% and 105% and 95.8% (compound 0.316 µM); 122% and 110% and 114% (compound 1 µM); 100% and 97.5% and 110% (compound 3.16 µM); 95.8% and 105% and 110% (compound 10 µM). The IC50 (curve of compound) was more than 10000 nM.

With `O=c1[nH]cc(F)c(=O)[nH]1`, the viability, T/C by setting is: (compound 0.0316 µM) 91.8% and 103% and 97.7%; (compound 0.1 µM) 109% and 108% and 95%; (compound 0.316 µM) 86.7% and 107% and 114%; (compound 1 µM) 96.3% and 108% and 78.9%; (compound 3.16 µM) 68.2% and 98.1% and 75.9%; (compound 10 µM) 71% and 93.2% and 71.8%. The IC50 (curve of compound) was more than 10000 nM.
